# Values of other authors, collected in patent US20060275294A1, “METHOD OF PREVENTION AND TREATMENT OF AGING, AGE-RELATED DISORDERS AND/OR AGE-RELATED MANIFESTATIONS INCLUDING ATHEROSCLEROSIS, PERIPHERAL VASCULAR DISEASE, CORONARY ARTERY DISEASE, OSTEOPOROSIS, ARTHRITIS, TYPE 2 DIABETES, DEMENTIA, ALZHEIMERS DISEASE AND CANCER” (priority 2002, published 2006).
# Assays:
# [1] = target: Recombinant human farnesyl diphosphate synthase (Homo sapiens, UniProt P14324); settings: cited from earlier work
# Recombinant human farnesyl diphosphate synthase, sequence (P14324 whole entry): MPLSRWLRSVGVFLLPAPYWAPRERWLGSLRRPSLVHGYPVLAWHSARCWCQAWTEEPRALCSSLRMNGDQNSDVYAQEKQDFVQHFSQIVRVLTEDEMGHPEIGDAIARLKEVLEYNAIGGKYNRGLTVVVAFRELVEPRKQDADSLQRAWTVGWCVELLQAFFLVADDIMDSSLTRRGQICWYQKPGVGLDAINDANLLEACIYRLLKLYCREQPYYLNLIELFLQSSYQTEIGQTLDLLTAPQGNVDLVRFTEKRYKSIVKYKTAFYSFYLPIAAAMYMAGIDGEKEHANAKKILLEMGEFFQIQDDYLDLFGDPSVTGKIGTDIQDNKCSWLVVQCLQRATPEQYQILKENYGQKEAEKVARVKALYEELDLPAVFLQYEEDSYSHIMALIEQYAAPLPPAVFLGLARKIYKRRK
# NF-kappaB = settings: pretreatment, rat VSMCs; cited from earlier work
# GGPP synthase = GGPP synthase (Homo sapiens, UniProt O95749); settings: cited from earlier work
# GGPP synthase, sequence (O95749 whole entry, species assumed): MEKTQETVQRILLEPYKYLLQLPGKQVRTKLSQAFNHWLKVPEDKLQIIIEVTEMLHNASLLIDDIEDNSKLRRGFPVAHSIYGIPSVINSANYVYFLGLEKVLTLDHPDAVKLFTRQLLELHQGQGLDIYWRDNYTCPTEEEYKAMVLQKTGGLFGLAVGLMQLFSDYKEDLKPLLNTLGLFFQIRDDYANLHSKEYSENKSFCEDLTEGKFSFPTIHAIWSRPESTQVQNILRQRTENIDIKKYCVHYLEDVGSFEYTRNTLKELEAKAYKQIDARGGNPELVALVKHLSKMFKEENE
# [2] = target: isopentenyl diphosphate isomerase (Homo sapiens, UniProt Q13907); settings: cited from earlier work
# isopentenyl diphosphate isomerase, sequence (Q13907 whole entry): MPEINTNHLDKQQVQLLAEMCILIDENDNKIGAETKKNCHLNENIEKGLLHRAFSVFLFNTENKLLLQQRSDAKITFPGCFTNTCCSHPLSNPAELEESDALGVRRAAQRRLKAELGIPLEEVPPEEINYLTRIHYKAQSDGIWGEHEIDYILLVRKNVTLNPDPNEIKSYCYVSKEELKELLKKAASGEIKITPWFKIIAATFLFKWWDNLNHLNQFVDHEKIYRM
# [3] = test system: human T, B and myeloma tumor cells; settings: by promoting apoptosis; cited from earlier work
# [4] = test system: rat primary astrocytes, microglia, and macrophages; settings: cited from earlier work
# [5] = test system: human monocytic THP-1 cells; settings: 10 microM, 24 h pretreatment; cited from earlier work
# [6] = test system: interleukin (IL)-6 bioactivity; settings: cited from earlier work
structure (smiles),measurement,setting,value
O=P(O)(O)C(Cl)(Cl)P(=O)(O)O [clodronate],inhibition of recombinant farnesyl diphosphate synthase,[1],not at all
Cc1ccc(S(=O)(=O)N[C@@H](Cc2ccccc2)C(=O)CCl)cc1 [TPCK],Sar1 Ang II-induced NF-kappaB activation and induction of endogenous IL-6 gene expression,NF-kappaB,completely blocked
NCCCC(O)(P(=O)(O)O)P(=O)(O)O [alendronate],inhibition of GGPP synthase,GGPP synthase,did not inhibit
same,inhibition of isopentenyl diphosphate isomerase,[2],did not inhibit
CC[C@H](C)C(=O)O[C@H]1C[C@@H](C)C=C2C=C[C@H](C)[C@H](CC[C@@H]3C[C@@H](O)CC(=O)O3)[C@H]21 [lovastatin],"effect on human T, B and myeloma tumor cells",[3],cytotoxic effect
same,LPS-mediated activation of NF kappa B,[4]; astrocytes,Inhibition
same,"LPS-induced expression of TNF-alpha, IL-1beta, and IL-6","[4]; rat primary astrocytes, microglia, macrophages",inhibited
same,LPS and cytokine-mediated production of NO and expression of iNOS,[4]; rat primary astrocytes,inhibit
same,hydrogen peroxide (H2O2) generation,[5],markedly suppressed
O=c1c(-c2ccc(O[C@@H]3O[C@H](CO)[C@@H](O)[C@H](O)[C@H]3O)cc2)coc2cc(O)cc(O)c12 [Sophoricoside],IC50,[6],6.1 µM
